# From patent publication US11786507B2, “Methods of treating HIV-associated neurological disorders (HAND)” (priority 2020, dated 2023)
# Legend:
# [1] = system: microglia in CORT of Wt and iTat mice; experiment: Iba-1 immunohistochemistry (DAB), microglia morphology in CORT; assay type: in vivo, mouse; conditions: PAM-treated iTat mice
# Description: Mice were anesthetized using avertin (tribromoethanol) and transcardially perfused with first phosphate-buffered saline (PBS) and then 4% paraformaldehyde (PFA). Then, the brains were dissected out, fixed in 4% PFA at 4° C. overnight, dehydrated in 30% sucrose, embedded in OCT, sagittally sectioned (20 μm) using a cryostat, and preserved in a cryoprotectant containing 30% ethylene glycol, 30% glycerol, and 40% PBS. For staining, floating sections were permeabilized in 0.1% triton X-100 in PBS (PBST), blocked by 1% BSA in PBST, probed by Iba-1 antibody (Wako, catalog #019-19741, and 1:800 dilution), inactivated endogenous peroxidases in 1% hydrogen peroxide, probed again by a goat anti-rabbit secondary antibody (Southern Biotech, catalog #4030-05, and 1:200 dilution), and developed using a DAB kit (Abeam, catalog #ab103723). All images were taken using a Nikon Eclipse E800 microscope with a 20× objective and analyzed by the Cellprofiler program. Every section was averaged from three brain regions prefrontal, occipital and parietal cortex, and the average of the three sections was used to represent individual animals.
# To further determine the relationship between microglia activation, Tat neurotoxicity, and PAM/α7 nAChR, immunohistochemistry staining was performed on microglia in CORT of Wt and iTat mice treated with and without PAM (FIG. 1). […]
# [2] = system: α7−/−iTat mice; experiment: PAM neuroprotection in α7 nAChR knockout iTat mice; conditions: mouse, in vivo
# Excerpt: Doxycycline (Dox)-inducible and astrocyte-specific HIV-1 Tat-transgenic mice (iTat) were generated as previously described.^38 Wild-type (Wt, C57BL/6) and α7 nAChR knockout mice (α7^−/−, B6.129S7-Chrna^7tm1Ba/J) were purchased from the Jackson Laboratory (Bar Harbor, ME). All the animal procedures were approved by the Institutional Animal Care and Use Committee. Mice were housed with a 12-hour light and 12-hour dark photoperiod and provided water and food ad libitum. α7^−/− iTat mice were generated by cross breeding iTat mice with α7^−/− mice. α7^−/− genotyping was slightly modified with the JumpStart™ Taq DNA Polymerase-based PCR (JumpStart™ Taq DNA Polymerase, Sigma, catalog #D9307). […] Mice of 10-14 weeks old with body weights of 20-35 grams were fed with Dox-containing diet (0.625 g/kg, Envigo, catalog #TD.01306) as stated.
# Open Field Test (OPT) and Morris Water Maze (MWZ) were performed sequentially using a computerized video tracking system (Anymaze, Stoelting) to determine the spontaneous locomotor activity and spatial learning and memory, respectively. For OPT, each mouse was allowed to move freely around a clear acrylic chamber (40.5×40.5×30.5 cm) for 10 minutes. Travel distance and maximum speed was determined by the AnyMaze software. […]
compound,measurement,setting,value
"COc1cc(OC)c(NC(=O)Nc2cc(C)on2)cc1Cl [PAM, 1-(5-chloro-2,4-dimethoxy-phenyl)-3-(5-methyl-isoxazol-3-yl)-urea]",Number of microglia branches and endpoints,[1],fewer branches and endpoints than PAM-treated Wt mice and DMSO-treated iTat mice
same,"Neuroprotective effects against locomotor, learning and memory deficits",[2],abolished
